Measured values from paper PMC12246756 (Frontiers in Pharmacology, 2025).

Assays:
[1] = test system: MCF-7 (breast carcinoma); test: Sulforhodamine B (SRB) assay, MCF-7; type: cell-based; conditions: Homo sapiens, MCF7, 48 h, read-out: IC50 (µM) MCF-7
Description: (§1) Roswell Park Memorial Institute (RPMI)-1640 medium, Dulbecco’s modified eagle medium high glucose (DMEM; Gibco) supplemented with 10% Fetal Bovine Serum (FBS; Gibco, and 1% antibiotic-antimycotic (Gibco; Anti-Anti 100x), phosphate-buffered saline (PBS; Gibco), 0.25% trypsin (Gibco), sodium pyruvate (Sigma-Aldrich), HEPES (Gibco). Human cancer cell lines A549 (lung carcinoma), MCF-7 (breast carcinoma), MDAMB-231 (breast carcinoma), A375 (melanoma), and normal human embryonic kidney cells (HEK-293) were taken from Dr. Sheikh Tasduq Abdullah and Dr. Boobalan Gopu (CSIR-IIIM).
(§2) Their activity was tested against human cancer cell lines A549 (lung carcinoma), MCF-7 (breast carcinoma), MDAMB-231 (breast carcinoma), and A375 (melanoma). The selectivity index (SI) was calculated against normal human embryonic kidney cells (HEK-293) to determine cytotoxic selectivity. The cells (7 × 10^3 cells/well) were seeded on 96 well plates, followed by overnight incubation. Multiple concentrations (50 µM, 20 µM, 10 µM, 5 µM, and 1 µM) of compounds were used to treat the cells, except for control wells that contained only cells with media. After 48 h of incubation, the cells attached to wells were fixed with 50 µL of chilled 50% TCA, and the plate was kept at 4°C for 1 h, as described previously ([Malik et al., 2023]; [Kumar et al., 2024]). The plate was washed (3–4 times) with distilled water (250 µL/well) and air-dried for 24 h. The next day, 100 µL of 0.4% SRB dye was added to each well, and the cells were incubated at room temperature for 1 h. The plate contents were discarded and washed 3 times with 1% glacial acetic acid (250 µL/well), followed by one last wash with distilled water and air drying for another 24 h. Subsequently, 100 µL of Tris base (10 mM, pH 10.5) was added to each well to dissolve the dye bound to fixed cells. The dissolved dye indicating growth inhibition was quantified by calculating optical density at 540 nm via microplate reader (Tecan infinite M200PRO, Switzerland). The IC50 values were calculated using GraphPad Prism Software Version 5.0. A favorable Selectivity Index (SI) is the most relevant parameter to detect anti-cancer potential in vitro as it indicates drug safety against cancer cells versus normal cells, efficacy of the drug, and selectivity. The selectivity index is calculated by using the formula. Selective Index=IC50 in Normal cells/IC50 in Cancerous cell lines

[2] = test system: A375 (melanoma); test: Sulforhodamine B (SRB) assay, A375; type: cell-based; conditions: Homo sapiens; for IC50: A-375, 48 h, read-out: IC50 (µM) A375
Description: as §1, §2

[3] = test system: normal human embryonic kidney cells (HEK-293); test: Sulforhodamine B (SRB) assay, normal cells HEK-293; type: cell-based; conditions: HEK293, 48 h, normal cell line, mean ± SD (n = 3)
Description: as §1, §2

[4] = test system: A549 (lung carcinoma); test: Sulforhodamine B (SRB) assay, A549; type: cell-based; conditions: Homo sapiens, A549, 48 h, read-out: IC50 (µM) A549
Description: as §1, §2

[5] = test system: MDA-MB 231 (breast carcinoma); test: Sulforhodamine B (SRB) assay, MDA-MB 231; type: cell-based; conditions: Homo sapiens, MDA-MB-231, 48 h, read-out: IC50 (µM) MDA-MB 231
Description: as §1, §2

[6] = test system: MCF-7; test: cells; type: cell-based; conditions: Homo sapiens, MCF7; MTT assay, 48 h
Procedure: (§3) Cell viability was assessed using the MTT assay, as outlined in previous studies ([Majeed et al., 2014]; [Amin et al., 2025]). Briefly, A549, A375, MCF-7 and MDA-MB231 cells (10 × 10^3 cells/well) were seeded in 96-well plates and incubated for 24 h at 37°C in a 5% CO2 atmosphere. After this incubation, the cells were treated with test compounds for another 48 h. At 44th hour of treatment, the cells were incubated with MTT (2.5 mg/mL) for additional 4 h. At 48th hour, DMSO was added (100 µL/well), to dissolve formazan crystals. Absorbance was measured at 570 nm. Cell viability was calculated relative to untreated controls. IC50 values were determined from independent triplicate experiments using GraphPad™ Prism 8.0 software. […]

[7] = test system: A375; test: cells; type: cell-based; conditions: Homo sapiens, A-375; MTT assay, 48 h
Procedure: as §3

[8] = test system: A549; test: cells; type: cell-based; conditions: Homo sapiens, MTT assay, 48 h
Procedure: as §3

[9] = test system: MDA-MB 231; test: cells; type: cell-based; conditions: Homo sapiens, MTT assay, 48 h
Procedure: as §3

[10] = test system: mitosis cell cycle; parameters: method as in Taylor, 1965; conditions: concentration of 50 nM; ref Taylor, 1965; cited from earlier work
[11] = test system: A375 cells; test: Wound healing (cell scratch) assay; type: cell-based, human
Procedure: Cell scratch assay, also known as wound healing assay, was performed to evaluate the impact of 3g on migration of A375 cells. The cells were seeded into the 6-well plate with […] density. The next day, in fresh media, a horizontal scratch was administered in the 90% confluent monolayer using a sterile 200 µL tip, as described previously, with slight modification ([Kumar et al., 2024]). The cells were incubated for 48 h with multiple concentrations of 3g such as 30 µM, 20 µM, 10 µM and 1 µM. Wound healing was observed using a Digital Inverted Fluorescence Microscope (Life Technologies EVOS FLc). The percentage of wound healing was calculated as. Wound Closure (%)=[…]

[12] = test system: A375 cells; test: Colony formation assay; type: cell-based, human
Procedure: A colony formation assay was performed to assess the ability of 3g to inhibit the reproductive and colony forming ability of A375 cells. The cells were seeded into a 6-well plate with a 1 × 10^3 cells/well density. Next day, the cells were treated with multiple concentrations of 3g, such as 30 µM, 20 µM, 10 µM and 1 µM, in fresh media for 48 h. The media was changed on alternate days till day 10, till untreated (negative control) became confluent. On day 10, the cells were washed with PBS, and colonies were observed under a microscope. The cells/colonies were fixed with 100% methanol for 20 min at 4°C and stained with 0.5% solution of crystal violet for 30 min at room temperature, as described previously ([Kumar et al., 2024]). Subsequently, the dye was removed from plates, and excess dye was rinsed by washing it with distilled water (3–5 times), followed by air drying. The colonies were counted using ImageJ software, and photographs were taken with a digital camera. The percentage of colonies formed was calculated using the formula mentioned below. Colony formation rate (%)=Number of colonies in treatment group/Number of colonies in control group×100

Row | SMILES | IC50 [1] | IC50 [2] | IC50 [3] | IC50 [4] | IC50 [5] | further results
1 | CCOC(=O)C1=C(c2cc(F)c(Cl)nc2Cl)NC(=O)NC1c1c2c(c(OC)c(OC)c1OC)-c1ccc(OC)c(=O)cc1[C@H](NC(C)=O)CC2 (stereo partly drawn) [Compound 3e, Ethyl 4-((R)-7-acetamido-1,2,3,10-tetramethoxy-9-oxo-5,6,7,9-tetrahydrobenzo [a]heptalen-4-yl)-6-(2,6-dichloro-5-fluoropyridin-3-yl)-2-oxo-1,2,3,4-tetrahydropyrimidine-5-carboxylate] | 45.1 ± 0.73 µM | > 50 µM | 40.3 ± 1.71 µM | > 50 µM | > 50 µM | –
2 | COC1=C(C(=O)C2CC2)C(c2c3c(c(OC)c(OC)c2OC)-c2ccc(OC)c(=O)cc2[C@@H](NC(C)=O)CC3)NC(=O)N1 (stereo partly drawn) [Compound 3j, N-((7S)-4-(5-(cyclopropanecarbonyl)-6-methoxy-2-oxo-1,2,3,4-tetrahydropyrimidin-4-yl)-1,2,3,10-tetramethoxy-9-oxo-5,6,7,9-tetrahydrobenzo [a]heptalen-7-yl) acetamide] | > 50 µM | > 50 µM | 39 ± 0.79 µM | > 50 µM | > 50 µM | –
3 | CC(=O)O[C@H]1C(=O)[C@@]2(C)[C@H]([C@H](OC(=O)c3ccccc3)[C@]3(O)C[C@H](OC(=O)[C@H](O)[C@@H](NC(=O)c4ccccc4)c4ccccc4)C(C)=C1C3(C)C)[C@]1(OC(C)=O)CO[C@@H]1C[C@@H]2O [Paclitaxel] | – | – | – | – | – | IC50 [6]: 0.014 ± 0.001 µM; IC50 [7]: 0.017 ± 0.028 µM; IC50 [8]: 0.028 ± 0.008 µM; IC50 [9]: 0.02 ± 0.002 µM
4 | CCOC(=O)C1=C(C)NC(=S)NC1c1c2c(c(OC)c(OC)c1OC)-c1ccc(OC)c(=O)cc1[C@H](NC(C)=O)CC2 (some centres unmarked) [Compound 3a] | 40.6 ± 0.91 µM | > 50 µM | 29.66 ± 0.07 µM | > 50 µM | > 50 µM | –
5 | CCOC(=O)C1=C(C(F)(F)C(F)(F)F)NC(=O)NC1c1c2c(c(OC)c(OC)c1OC)-c1ccc(OC)c(=O)cc1[C@H](NC(C)=O)CC2 (stereo partly drawn) [Compound 3f, Ethyl 4-((R)-7-acetamido-1,2,3,10-tetramethoxy-9-oxo-5,6,7,9-tetrahydrobenzo [a]heptalen-4-yl)-2-oxo-6-(perfluoroethyl)-1,2,3,4-tetrahydropyrimidine-5-carboxylate] | 26.4 ± 2.79 µM | 28.3 ± 2.19 µM | 17.8 ± 1.3 µM | > 50 µM | 46.6 ± 0.86 µM | –
6 | COc1c(OC)c2c(c(C3NC(=O)NC(C)=C3C(=O)Oc3ccccc3)c1OC)CC[C@@H](NC(C)=O)c1cc(=O)c(OC)ccc1-2 (stereo partly drawn) [Compound 3c, phenyl 4-((R)-7-acetamido-1,2,3,10-tetramethoxy-9-oxo-5,6,7,9-tetrahydrobenzo [a]heptalen-4-yl)-6-methyl-2-oxo-1,2,3,4-tetrahydropyrimidine-5-carboxylate] | 44.8 ± 0.68 µM | > 50 µM | 35.6 ± 2.97 µM | > 50 µM | > 50 µM | –
7 | COc1cc2c(c(OC)c1OC)-c1ccc(OC)c(=O)cc1[C@@H](NC(C)=O)CC2 [Colchicine] | – | – | – | – | – | block of mitotic cells [10]: blocks almost all the prophase, metaphase, and anaphase cells
8 | CCOC(=O)C1=C(OCC)NC(=O)NC1c1c2c(c(OC)c(OC)c1OC)-c1ccc(OC)c(=O)cc1[C@H](NC(C)=O)CC2 (stereo partly drawn) [Compound 3h, ethyl 4-((R)-7-acetamido-1,2,3,10-tetramethoxy-9-oxo-5,6,7,9-tetrahydrobenzo [a]heptalen-4-yl)-6-ethoxy-2-oxo-1,2,3,4-tetrahydropyrimidine-5-carboxylate] | 49.9 ± 2.72 µM | 35.2 ± 2.79 µM | 26.6 ± 2.65 µM | > 50 µM | > 50 µM | –
9 | CCOC(=O)C1=C(C)NC(=N)NC1c1c2c(c(OC)c(OC)c1OC)-c1ccc(OC)c(=O)cc1[C@H](NC(C)=O)CC2 (stereo partly drawn) [Compound 3b, Ethyl 4-((R)-7-acetamido-1,2,3,10-tetramethoxy-9-oxo-5,6,7,9-tetrahydrobenzo [a]heptalen-4-yl)-2-imino-6-methyl-1,2,3,4-tetrahydropyrimidine-5-carboxylate] | 44.7 ± 0.64 µM | > 50 µM | 38.3 ± 1.36 µM | > 50 µM | > 50 µM | –
10 | CCOC(=O)C1=C(C(F)(F)C(F)(F)F)NC(=O)NC1c1c2c(c(OC)c(OC)c1OC)-c1ccc(OC)c(=O)cc1[C@@H](NC(C)=O)CC2 (stereo partly drawn) [Compound 3g, Ethyl 4-((S)-7-acetamido-1,2,3,10-tetramethoxy-9-oxo-5,6,7,9-tetrahydrobenzo [a]heptalen-4-yl)-2-oxo-6-(perfluoroethyl)-1,2,3,4-tetrahydropyrimidine-5-carboxylate] | 15.7 ± 0.39 µM | 10.3 ± 0.56 µM | 15.8 ± 0.81 µM | > 50 µM | 24.9 ± 2.7 µM | percentage of wound closure ([11]; 20 µM, 48 h, A375 cells, untreated control 84%): 69%; reduction of migration potential ([11]; melanoma cells (abstract)): 69%; inhibition at 20 µM ([2]; A-375, read-out: growth inhibition): 60%; percentage of colony growth formation ([12]; 20 µM, 48 h treatment, A375 cells, untreated control 100%): 37.5%; inhibition of colony formation ([12]; melanoma cells (abstract)): up to 62.5%
11 | CCOC(=O)C1=C(C(Cl)(Cl)Cl)NC(=O)NC1c1c2c(c(OC)c(OC)c1OC)-c1ccc(OC)c(=O)cc1[C@H](NC(C)=O)CC2 (stereo partly drawn) [Compound 3d, Ethyl 4-((R)-7-acetamido-1,2,3,10-tetramethoxy-9-oxo-5,6,7,9-tetrahydrobenzo [a]heptalen-4-yl)-2-oxo-6-(trichloromethyl)-1,2,3,4-tetrahydropyrimidine-5-carboxylate] | 43.79 ± 0.33 µM | > 50 µM | 36.1 ± 1.79 µM | > 50 µM | > 50 µM | –
12 | COC1=C(C(=O)C2CC2)C(c2c3c(c(OC)c(OC)c2OC)-c2ccc(OC)c(=O)cc2[C@H](NC(C)=O)CC3)NC(=O)N1 (stereo partly drawn) [Compound 3i, N-((7R)-4-(5-(cyclopropanecarbonyl)-6-methoxy-2-oxo-1,2,3,4-tetrahydropyrimidin-4-yl)-1,2,3,10-tetramethoxy-9-oxo-5,6,7,9-tetrahydrobenzo [a]heptalen-7-yl) acetamide] | > 50 µM | > 50 µM | 39.5 ± 1.36 µM | > 50 µM | – | –
